Active and inactive are the calls of the source.
How the values were obtained:
[1] = Luminescence Cell-Based Dose Retest to Confirm Inhibitors of Cancer Stem Cells. [Related pubchem assays (depositor defined):AID2717, AID2721]; format: functional; conditions: Homo sapiens
[2] = microbe, parasite or virus in culture; format: functional; conditions: Mycobacterium tuberculosis
[3] = target: Disintegrin and metalloproteinase domain-containing protein 17 (Homo sapiens, UniProt P78536); test: ADAM17 protease inhibitors, dose response, counter-screen for ADAM10 exosite inhibitor project, biochemical, quenched FRET substrate (AID 743253)
Streptokinase A = target: T1, Streptokinase A (Streptococcus pyogenes serotype M1, UniProt P10520); test: S. pyogenes streptokinase expression inhibitors, potency, dose response, plasminogen activation absorbance, OD405 (AID 1914); format: functional, Streptococcus pyogenes M1 GAS;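 further: secreted streptokinase activity via plasminogen activation per viability signal from cell pellet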
T1 sequence (P10520 whole entry): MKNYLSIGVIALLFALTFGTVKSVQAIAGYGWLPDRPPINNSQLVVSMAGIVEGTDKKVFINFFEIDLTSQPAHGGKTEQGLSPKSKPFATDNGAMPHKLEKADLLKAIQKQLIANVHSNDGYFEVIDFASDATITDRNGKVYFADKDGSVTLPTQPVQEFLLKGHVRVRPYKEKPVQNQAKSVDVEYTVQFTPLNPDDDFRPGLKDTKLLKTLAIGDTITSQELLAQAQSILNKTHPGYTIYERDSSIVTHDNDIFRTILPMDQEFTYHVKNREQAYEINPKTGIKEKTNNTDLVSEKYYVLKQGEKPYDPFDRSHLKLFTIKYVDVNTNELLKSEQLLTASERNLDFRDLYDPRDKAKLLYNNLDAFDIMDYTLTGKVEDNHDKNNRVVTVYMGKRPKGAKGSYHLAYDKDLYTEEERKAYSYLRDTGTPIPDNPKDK

Streptococcus = test: Group A Streptococcus viability loss, dose response, counter-screen for streptokinase expression inhibitor project, luminescence, BacTiterGlo (AID 1915); format: functional, organism-based;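 further: potency for reduction of bacterial viability or growth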
[4] = system: Streptococcus sp. 'group A'; test: growth inhibition of control SK(-) GAS strain, dose response, counter-screen for streptokinase expression inhibitor project, luminescence, kanamycin, BacTiterGlo, confirmation (AID 1900); format: functional, organism-based
Cytochrome P450 2D6 = Cytochrome P450 2D6 (Homo sapiens, UniProt P10635);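 further: CYP2D6 member of a cytochrome P450 panel assay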
fMet-Leu-Phe receptor = target: T2, fMet-Leu-Phe receptor (Homo sapiens, UniProt P21462); test: FPR ligands, dose response (AID 519); format: functional
T2 sequence (P21462 whole entry): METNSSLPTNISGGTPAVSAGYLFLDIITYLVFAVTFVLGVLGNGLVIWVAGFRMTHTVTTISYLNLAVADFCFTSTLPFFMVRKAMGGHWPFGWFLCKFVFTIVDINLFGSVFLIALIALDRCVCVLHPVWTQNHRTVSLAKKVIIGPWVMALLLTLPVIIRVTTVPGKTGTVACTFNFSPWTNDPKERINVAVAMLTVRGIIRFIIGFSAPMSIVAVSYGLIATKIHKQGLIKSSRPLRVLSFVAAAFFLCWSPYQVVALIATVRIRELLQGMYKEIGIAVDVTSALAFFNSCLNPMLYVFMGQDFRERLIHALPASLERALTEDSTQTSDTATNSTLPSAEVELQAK

Cytochrome P450 1A2 = target: T3, Cytochrome P450 1A2 (Homo sapiens, UniProt P05177);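 further: PubChem cytochrome P450 panel assay, CYP1A2 panel member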
T3 sequence (P05177 whole entry): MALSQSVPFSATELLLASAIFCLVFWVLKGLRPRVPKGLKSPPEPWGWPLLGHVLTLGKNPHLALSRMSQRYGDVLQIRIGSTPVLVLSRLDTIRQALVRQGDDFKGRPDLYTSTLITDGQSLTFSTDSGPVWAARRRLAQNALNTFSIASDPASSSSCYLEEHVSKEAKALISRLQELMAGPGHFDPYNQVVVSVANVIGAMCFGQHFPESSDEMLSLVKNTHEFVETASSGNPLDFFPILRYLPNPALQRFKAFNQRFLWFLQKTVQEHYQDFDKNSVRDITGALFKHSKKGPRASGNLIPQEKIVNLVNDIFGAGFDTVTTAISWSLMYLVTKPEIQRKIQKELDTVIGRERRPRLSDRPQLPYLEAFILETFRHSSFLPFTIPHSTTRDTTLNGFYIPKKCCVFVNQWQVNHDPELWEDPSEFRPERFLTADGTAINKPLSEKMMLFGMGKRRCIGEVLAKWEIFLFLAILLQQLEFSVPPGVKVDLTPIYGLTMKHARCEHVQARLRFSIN

[5] = target: Mitogen-activated protein kinase 10 (Homo sapiens, UniProt P53779); test: Dose response biochemical screening assay for inhibitors of c-Jun N-Terminal Kinase 3 (JNK3). [Related pubchem assays: 746 ]
Kallikrein-7 = Kallikrein-7 (Homo sapiens, UniProt P49862); test: Fluorescence Intensity-based biochemical primary high throughput dose response assay to identify activators of kallikrein-7 (K7) zymogen.
Aminopeptidase N = target: T4, Aminopeptidase N (Plasmodium falciparum FcB1/Columbia, UniProt O96935); test: P. falciparum M1AAP inhibitors, biochemical, fluorogenic H-Leu-NHMec substrate, 1536-well (AID 1445); set-up: species or system Plasmodium falciparum 3D7, 3D7
T4 sequence (O96935 whole entry): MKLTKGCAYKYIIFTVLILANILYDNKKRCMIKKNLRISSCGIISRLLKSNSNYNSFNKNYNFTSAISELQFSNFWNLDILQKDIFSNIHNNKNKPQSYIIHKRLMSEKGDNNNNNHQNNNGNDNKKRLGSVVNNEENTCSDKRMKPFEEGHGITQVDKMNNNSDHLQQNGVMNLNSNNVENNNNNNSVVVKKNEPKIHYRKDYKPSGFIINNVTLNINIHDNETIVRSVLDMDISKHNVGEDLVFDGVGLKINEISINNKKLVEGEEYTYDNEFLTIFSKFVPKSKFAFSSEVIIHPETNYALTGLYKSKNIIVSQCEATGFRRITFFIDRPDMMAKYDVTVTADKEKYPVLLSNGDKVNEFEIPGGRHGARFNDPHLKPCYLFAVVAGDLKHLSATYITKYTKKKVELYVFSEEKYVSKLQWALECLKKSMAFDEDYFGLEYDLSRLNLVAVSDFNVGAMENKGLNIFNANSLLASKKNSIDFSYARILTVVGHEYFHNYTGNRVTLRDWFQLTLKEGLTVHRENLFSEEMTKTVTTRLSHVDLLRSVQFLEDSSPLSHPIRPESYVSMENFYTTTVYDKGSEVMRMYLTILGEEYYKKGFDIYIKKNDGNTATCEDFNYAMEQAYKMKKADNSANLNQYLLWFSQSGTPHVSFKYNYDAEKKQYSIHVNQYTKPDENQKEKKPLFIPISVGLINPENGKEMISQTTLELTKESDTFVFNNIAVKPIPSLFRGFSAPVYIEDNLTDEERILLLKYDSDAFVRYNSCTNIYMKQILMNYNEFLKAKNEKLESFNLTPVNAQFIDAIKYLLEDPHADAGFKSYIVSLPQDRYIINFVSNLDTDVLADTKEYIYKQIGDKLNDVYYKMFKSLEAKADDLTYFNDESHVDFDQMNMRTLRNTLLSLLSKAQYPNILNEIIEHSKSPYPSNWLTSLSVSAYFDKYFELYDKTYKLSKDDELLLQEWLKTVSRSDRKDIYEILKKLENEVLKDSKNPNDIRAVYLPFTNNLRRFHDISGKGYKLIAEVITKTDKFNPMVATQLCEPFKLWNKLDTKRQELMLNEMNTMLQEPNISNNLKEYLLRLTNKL

[6] = target: Endoplasmic reticulum aminopeptidase 1 (Homo sapiens, UniProt Q9NZ08); test: ERAP1 aminopeptidase inhibitors, dose response, biochemical, cherry-pick, set 2, plate reader (AID 743314)
cells = conditions: HEK293
[7] = Shn3 3'UTR reporter inhibitors, dose response, cell-based, Clone20 osteoblasts, firefly luciferase, cherry-picked (AID 624132); format: functional;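 further: firefly luciferase luminescence from reporter carrying the Shn3 3'UTR in osteoblasts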
[8] = reduction of Shn3 3'UTR firefly luciferase signal, dose response, Schnurri-3 inhibitor project, cell-based, Clone20 osteoblasts, cherry-pick, set 2 (AID 720490); format: functional;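 further: actives lower the luminescence signal as inhibitors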
[9] = control 3'UTR Renilla luciferase suppression, dose response, counter-screen for Shn3 inhibitor project, cell-based, Clone20-Shn3RL, cherry-picked (AID 624133); format: functional

Mitogen-activated protein kinase 10, sequence (P53779 whole entry): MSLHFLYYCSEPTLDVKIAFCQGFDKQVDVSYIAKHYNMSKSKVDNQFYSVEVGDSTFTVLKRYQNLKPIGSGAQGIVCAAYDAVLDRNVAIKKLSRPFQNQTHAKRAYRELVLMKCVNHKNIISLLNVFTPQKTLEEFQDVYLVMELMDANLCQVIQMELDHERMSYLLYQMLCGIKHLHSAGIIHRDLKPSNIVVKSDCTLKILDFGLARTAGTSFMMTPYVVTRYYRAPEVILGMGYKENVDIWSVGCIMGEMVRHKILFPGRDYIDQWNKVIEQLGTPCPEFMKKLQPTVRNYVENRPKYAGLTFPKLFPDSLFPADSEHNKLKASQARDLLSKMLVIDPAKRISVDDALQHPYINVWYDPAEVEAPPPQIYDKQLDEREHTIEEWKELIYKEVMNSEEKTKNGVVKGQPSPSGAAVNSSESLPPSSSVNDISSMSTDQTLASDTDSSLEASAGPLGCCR
Endoplasmic reticulum aminopeptidase 1, sequence (Q9NZ08 whole entry): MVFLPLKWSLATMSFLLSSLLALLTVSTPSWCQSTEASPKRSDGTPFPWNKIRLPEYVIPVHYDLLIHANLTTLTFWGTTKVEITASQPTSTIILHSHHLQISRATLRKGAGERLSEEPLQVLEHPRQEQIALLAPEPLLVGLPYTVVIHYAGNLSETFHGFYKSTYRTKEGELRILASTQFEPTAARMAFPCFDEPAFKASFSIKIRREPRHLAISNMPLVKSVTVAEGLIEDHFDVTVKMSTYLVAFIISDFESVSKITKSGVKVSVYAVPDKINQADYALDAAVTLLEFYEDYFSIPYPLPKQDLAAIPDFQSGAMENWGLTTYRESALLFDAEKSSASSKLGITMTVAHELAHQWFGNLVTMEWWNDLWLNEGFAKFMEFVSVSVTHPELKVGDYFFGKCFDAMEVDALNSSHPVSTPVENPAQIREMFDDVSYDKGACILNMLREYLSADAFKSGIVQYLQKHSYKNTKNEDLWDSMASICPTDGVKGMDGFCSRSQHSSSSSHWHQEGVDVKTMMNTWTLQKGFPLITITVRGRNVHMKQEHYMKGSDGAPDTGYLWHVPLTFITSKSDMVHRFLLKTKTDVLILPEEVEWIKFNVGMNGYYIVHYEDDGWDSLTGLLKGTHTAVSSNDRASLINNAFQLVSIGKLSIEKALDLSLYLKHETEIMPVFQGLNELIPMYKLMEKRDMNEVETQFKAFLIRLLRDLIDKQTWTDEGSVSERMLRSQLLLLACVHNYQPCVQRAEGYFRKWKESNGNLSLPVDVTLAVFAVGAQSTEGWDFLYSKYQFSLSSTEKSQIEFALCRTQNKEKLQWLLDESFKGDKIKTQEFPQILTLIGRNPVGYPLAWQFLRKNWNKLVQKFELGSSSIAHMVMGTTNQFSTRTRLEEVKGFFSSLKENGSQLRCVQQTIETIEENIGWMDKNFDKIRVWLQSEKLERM
Cytochrome P450 2D6, sequence (P10635 whole entry): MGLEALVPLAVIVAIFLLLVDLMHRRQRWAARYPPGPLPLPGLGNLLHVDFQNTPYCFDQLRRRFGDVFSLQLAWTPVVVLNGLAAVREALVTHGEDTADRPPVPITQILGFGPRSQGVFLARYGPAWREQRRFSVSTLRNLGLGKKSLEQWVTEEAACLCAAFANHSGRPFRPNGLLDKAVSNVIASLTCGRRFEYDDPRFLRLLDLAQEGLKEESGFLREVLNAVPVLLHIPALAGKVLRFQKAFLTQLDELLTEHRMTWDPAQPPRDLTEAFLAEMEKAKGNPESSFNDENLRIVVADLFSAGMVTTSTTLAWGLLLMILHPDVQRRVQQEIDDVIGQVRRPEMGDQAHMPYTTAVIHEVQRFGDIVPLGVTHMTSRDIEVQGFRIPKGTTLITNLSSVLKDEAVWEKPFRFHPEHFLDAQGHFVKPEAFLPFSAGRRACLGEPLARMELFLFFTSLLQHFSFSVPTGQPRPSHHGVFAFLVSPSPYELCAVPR
Disintegrin and metalloproteinase domain-containing protein 17, sequence (P78536 whole entry, the tested form may be a part): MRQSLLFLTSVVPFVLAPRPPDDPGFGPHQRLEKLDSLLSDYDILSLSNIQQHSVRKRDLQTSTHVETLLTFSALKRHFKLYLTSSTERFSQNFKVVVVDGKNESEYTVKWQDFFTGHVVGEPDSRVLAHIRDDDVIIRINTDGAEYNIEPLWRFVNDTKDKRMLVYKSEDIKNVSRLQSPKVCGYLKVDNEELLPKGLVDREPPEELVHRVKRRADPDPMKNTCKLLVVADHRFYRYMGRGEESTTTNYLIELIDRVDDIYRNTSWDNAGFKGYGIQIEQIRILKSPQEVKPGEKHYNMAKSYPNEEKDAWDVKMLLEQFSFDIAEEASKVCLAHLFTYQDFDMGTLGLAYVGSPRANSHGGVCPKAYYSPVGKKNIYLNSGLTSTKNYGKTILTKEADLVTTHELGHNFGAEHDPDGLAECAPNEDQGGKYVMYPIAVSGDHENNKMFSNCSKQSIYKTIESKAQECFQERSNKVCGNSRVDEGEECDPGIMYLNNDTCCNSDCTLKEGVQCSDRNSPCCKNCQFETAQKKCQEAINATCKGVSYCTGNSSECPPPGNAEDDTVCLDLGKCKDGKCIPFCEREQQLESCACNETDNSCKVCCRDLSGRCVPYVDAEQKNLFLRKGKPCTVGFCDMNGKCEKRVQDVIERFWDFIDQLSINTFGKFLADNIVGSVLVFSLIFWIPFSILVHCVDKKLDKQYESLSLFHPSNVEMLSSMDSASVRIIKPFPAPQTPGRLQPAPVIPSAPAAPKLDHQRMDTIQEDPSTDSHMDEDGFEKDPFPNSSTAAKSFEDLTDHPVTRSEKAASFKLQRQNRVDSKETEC
Kallikrein-7, sequence (P49862 whole entry): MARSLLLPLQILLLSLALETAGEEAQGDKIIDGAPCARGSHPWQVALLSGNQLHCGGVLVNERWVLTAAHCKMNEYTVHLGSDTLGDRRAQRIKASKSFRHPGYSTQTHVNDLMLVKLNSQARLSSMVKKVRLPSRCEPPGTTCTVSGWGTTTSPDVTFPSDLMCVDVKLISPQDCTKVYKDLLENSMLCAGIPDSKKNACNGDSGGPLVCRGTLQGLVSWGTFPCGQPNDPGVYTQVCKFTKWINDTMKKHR

O=C(Nc1ccc(OCC(F)(F)C(F)F)c(C(F)(F)F)c1)c1ccc(Cl)cc1
AC50 [1]: 3.52 µM (active)
CC50 [2]: 13.4 µM (active)
IC50 [3]: > 69.5 µM (inactive)
EC50 (Streptokinase A): 1.77 µM (active)
EC50 (Streptococcus): 7.49 µM (active)
EC50 [4]: 5.77 µM (active)

Cc1ccc(C(=O)C2=C(O)C(=O)N(CCCn3ccnc3)C2c2ccc(OC(C)C)cc2)o1 (stereo not drawn)
AC50 (Cytochrome P450 2D6): 12.6 µM (inconclusive)
Ki (fMet-Leu-Phe receptor): > 66.7 µM (inactive)
AC50 (Cytochrome P450 1A2): 39.8 µM (inconclusive)
IC50 [5]: 37.4 µM (not active)

O=c1c(-c2ccccc2)coc2c(CN3CCOCC3)c(O)ccc12
EC50 (Kallikrein-7): 12.4 µM (inactive)

Cc1cc(=O)oc2c(CN3CCN(C)CC3)c(O)c(Cl)cc12
IC50 (Aminopeptidase N): 33.6 µM (active)
AC50 [6]: 6.77 µM (active)

CCCOc1c(Br)cc(C2C3=C(CCCC3=O)N(C)C3=C2C(=O)CCC3)cc1OC
AC50 (cells): > 52 µM (inactive)

Cc1nn2c(O)c3c(nc2c1-c1ccccc1)CCC3
Ki (fMet-Leu-Phe receptor): 20.4 µM (inactive)

COc1ccccc1NC(=O)Cn1cc(C(=O)C2CC2)c2ccccc21
AC50 [7]: 4.76 µM (active)
AC50 [8]: 6.08 µM (active)
AC50 [9]: 29 µM (active)
